For `O=C1c2ccccc2C(=O)N1O`, which solubility (mole fraction) (in 1,4-dioxane, 288.15 K) is on record?
Its solubility (mole fraction) is 0.0181.

And the solubility (mole fraction) (in 1,4-dioxane, 293.15 K)?
Its solubility (mole fraction) is 0.0204.

What about the solubility (mole fraction) (in 1,4-dioxane, 298.15 K) of the same compound?
The solubility (mole fraction) was 0.0231.

What about the solubility (mole fraction) (in 1,4-dioxane, 303.15 K) of the same compound?
Its solubility (mole fraction) is 0.0255.

What about the solubility (mole fraction) (in 1,4-dioxane, 308.15 K) of the same compound?
Its solubility (mole fraction) is 0.0286.

And the solubility (mole fraction) (in 1,4-dioxane, 313.15 K)?
Its solubility (mole fraction) is 0.0319.

And the solubility (mole fraction) (in 1,4-dioxane, 318.15 K)?
The solubility (mole fraction) was 0.0354.

And the solubility (mole fraction) (in 1,4-dioxane, 323.15 K)?
Its solubility (mole fraction) is 0.0393.

What about the solubility (mole fraction) (in 2-ethoxyethanol, 278.15 K) of the same compound?
The solubility (mole fraction) was 0.016.

And the solubility (mole fraction) (in 2-ethoxyethanol, 283.15 K)?
The solubility (mole fraction) was 0.0182.

What about the solubility (mole fraction) (in 2-ethoxyethanol, 288.15 K) of the same compound?
The solubility (mole fraction) was 0.0207.

And the solubility (mole fraction) (in 2-ethoxyethanol, 293.15 K)?
The solubility (mole fraction) was 0.0233.

What about the solubility (mole fraction) (in 2-ethoxyethanol, 298.15 K) of the same compound?
The solubility (mole fraction) was 0.026.

What about the solubility (mole fraction) (in 2-ethoxyethanol, 303.15 K) of the same compound?
Its solubility (mole fraction) is 0.0294.

What about the solubility (mole fraction) (in 2-ethoxyethanol, 308.15 K) of the same compound?
Its solubility (mole fraction) is 0.0327.

What about the solubility (mole fraction) (in 2-ethoxyethanol, 313.15 K) of the same compound?
Its solubility (mole fraction) is 0.0364.

And the solubility (mole fraction) (in 2-ethoxyethanol, 318.15 K)?
Its solubility (mole fraction) is 0.0404.

What about the solubility (mole fraction) (in 2-ethoxyethanol, 323.15 K) of the same compound?
Its solubility (mole fraction) is 0.0447.

And the solubility (mole fraction) (in 2-methoxyethanol, 278.15 K)?
The solubility (mole fraction) was 0.0254.

What about the solubility (mole fraction) (in 2-methoxyethanol, 283.15 K) of the same compound?
Its solubility (mole fraction) is 0.028.

And the solubility (mole fraction) (in 2-methoxyethanol, 288.15 K)?
The solubility (mole fraction) was 0.0311.

What about the solubility (mole fraction) (in 2-methoxyethanol, 293.15 K) of the same compound?
Its solubility (mole fraction) is 0.0346.

And the solubility (mole fraction) (in 2-methoxyethanol, 298.15 K)?
Its solubility (mole fraction) is 0.0381.

And the solubility (mole fraction) (in 2-methoxyethanol, 303.15 K)?
Its solubility (mole fraction) is 0.0421.

What about the solubility (mole fraction) (in 2-methoxyethanol, 308.15 K) of the same compound?
Its solubility (mole fraction) is 0.0466.

And the solubility (mole fraction) (in 2-methoxyethanol, 313.15 K)?
Its solubility (mole fraction) is 0.051.

What about the solubility (mole fraction) (in 2-methoxyethanol, 318.15 K) of the same compound?
The solubility (mole fraction) was 0.056.

And the solubility (mole fraction) (in 2-methoxyethanol, 323.15 K)?
Its solubility (mole fraction) is 0.062.

What about the solubility (mole fraction) (in acetone, 278.15 K) of the same compound?
The solubility (mole fraction) was 0.00744.

And the solubility (mole fraction) (in acetone, 283.15 K)?
Its solubility (mole fraction) is 0.00861.

What about the solubility (mole fraction) (in acetone, 288.15 K) of the same compound?
Its solubility (mole fraction) is 0.00981.

And the solubility (mole fraction) (in acetone, 293.15 K)?
The solubility (mole fraction) was 0.0111.

What about the solubility (mole fraction) (in acetone, 298.15 K) of the same compound?
The solubility (mole fraction) was 0.0126.

And the solubility (mole fraction) (in acetone, 303.15 K)?
Its solubility (mole fraction) is 0.0144.

What about the solubility (mole fraction) (in acetone, 308.15 K) of the same compound?
The solubility (mole fraction) was 0.0161.

And the solubility (mole fraction) (in acetone, 313.15 K)?
Its solubility (mole fraction) is 0.0186.

And the solubility (mole fraction) (in acetone, 318.15 K)?
Its solubility (mole fraction) is 0.0202.

And the solubility (mole fraction) (in acetone, 323.15 K)?
The solubility (mole fraction) was 0.0222.

And the solubility (mole fraction) (in acetonitrile, 278.15 K)?
Its solubility (mole fraction) is 0.00232.

What about the solubility (mole fraction) (in acetonitrile, 283.15 K) of the same compound?
The solubility (mole fraction) was 0.00268.

What about the solubility (mole fraction) (in acetonitrile, 288.15 K) of the same compound?
The solubility (mole fraction) was 0.00312.

What about the solubility (mole fraction) (in acetonitrile, 293.15 K) of the same compound?
The solubility (mole fraction) was 0.0036.

What about the solubility (mole fraction) (in acetonitrile, 298.15 K) of the same compound?
The solubility (mole fraction) was 0.00414.

And the solubility (mole fraction) (in acetonitrile, 303.15 K)?
The solubility (mole fraction) was 0.00476.

What about the solubility (mole fraction) (in acetonitrile, 308.15 K) of the same compound?
Its solubility (mole fraction) is 0.00543.

And the solubility (mole fraction) (in acetonitrile, 313.15 K)?
Its solubility (mole fraction) is 0.00618.

What about the solubility (mole fraction) (in acetonitrile, 318.15 K) of the same compound?
Its solubility (mole fraction) is 0.00701.

What about the solubility (mole fraction) (in acetonitrile, 323.15 K) of the same compound?
The solubility (mole fraction) was 0.0079.

What about the solubility (mole fraction) (in ethanol, 278.15 K) of the same compound?
Its solubility (mole fraction) is 0.00307.

What about the solubility (mole fraction) (in ethanol, 283.15 K) of the same compound?
The solubility (mole fraction) was 0.00366.

And the solubility (mole fraction) (in ethanol, 288.15 K)?
The solubility (mole fraction) was 0.00442.

What about the solubility (mole fraction) (in ethanol, 293.15 K) of the same compound?
The solubility (mole fraction) was 0.00526.

And the solubility (mole fraction) (in ethanol, 298.15 K)?
Its solubility (mole fraction) is 0.00614.

What about the solubility (mole fraction) (in ethanol, 303.15 K) of the same compound?
The solubility (mole fraction) was 0.00729.

And the solubility (mole fraction) (in ethanol, 308.15 K)?
The solubility (mole fraction) was 0.00855.

And the solubility (mole fraction) (in ethanol, 313.15 K)?
The solubility (mole fraction) was 0.01.

What about the solubility (mole fraction) (in ethanol, 318.15 K) of the same compound?
Its solubility (mole fraction) is 0.0117.

What about the solubility (mole fraction) (in ethanol, 323.15 K) of the same compound?
The solubility (mole fraction) was 0.0138.

And the solubility (mole fraction) (in ethyl acetate, 278.15 K)?
The solubility (mole fraction) was 0.00214.

And the solubility (mole fraction) (in ethyl acetate, 283.15 K)?
Its solubility (mole fraction) is 0.00252.

What about the solubility (mole fraction) (in ethyl acetate, 288.15 K) of the same compound?
The solubility (mole fraction) was 0.00301.

What about the solubility (mole fraction) (in ethyl acetate, 293.15 K) of the same compound?
The solubility (mole fraction) was 0.00353.

What about the solubility (mole fraction) (in ethyl acetate, 298.15 K) of the same compound?
Its solubility (mole fraction) is 0.00399.

What about the solubility (mole fraction) (in ethyl acetate, 303.15 K) of the same compound?
The solubility (mole fraction) was 0.00465.

What about the solubility (mole fraction) (in ethyl acetate, 308.15 K) of the same compound?
Its solubility (mole fraction) is 0.00541.

What about the solubility (mole fraction) (in ethyl acetate, 313.15 K) of the same compound?
Its solubility (mole fraction) is 0.0062.

And the solubility (mole fraction) (in ethyl acetate, 318.15 K)?
Its solubility (mole fraction) is 0.00705.

And the solubility (mole fraction) (in ethyl acetate, 323.15 K)?
The solubility (mole fraction) was 0.00807.

What about the solubility (mole fraction) (in methanol, 278.15 K) of the same compound?
Its solubility (mole fraction) is 0.00354.

What about the solubility (mole fraction) (in methanol, 283.15 K) of the same compound?
The solubility (mole fraction) was 0.00412.

What about the solubility (mole fraction) (in methanol, 288.15 K) of the same compound?
The solubility (mole fraction) was 0.00484.

What about the solubility (mole fraction) (in methanol, 293.15 K) of the same compound?
The solubility (mole fraction) was 0.00566.

What about the solubility (mole fraction) (in methanol, 298.15 K) of the same compound?
The solubility (mole fraction) was 0.00657.

What about the solubility (mole fraction) (in methanol, 303.15 K) of the same compound?
The solubility (mole fraction) was 0.0078.

What about the solubility (mole fraction) (in methanol, 308.15 K) of the same compound?
Its solubility (mole fraction) is 0.00903.

What about the solubility (mole fraction) (in methanol, 313.15 K) of the same compound?
The solubility (mole fraction) was 0.0105.

What about the solubility (mole fraction) (in methanol, 318.15 K) of the same compound?
The solubility (mole fraction) was 0.0123.

What about the solubility (mole fraction) (in methanol, 323.15 K) of the same compound?
The solubility (mole fraction) was 0.0143.

And the solubility (mole fraction) (in methyl acetate, 278.15 K)?
The solubility (mole fraction) was 0.00303.

And the solubility (mole fraction) (in methyl acetate, 283.15 K)?
The solubility (mole fraction) was 0.00342.

What about the solubility (mole fraction) (in methyl acetate, 288.15 K) of the same compound?
The solubility (mole fraction) was 0.00394.

And the solubility (mole fraction) (in methyl acetate, 293.15 K)?
The solubility (mole fraction) was 0.00462.

And the solubility (mole fraction) (in methyl acetate, 298.15 K)?
Its solubility (mole fraction) is 0.00528.

And the solubility (mole fraction) (in methyl acetate, 303.15 K)?
Its solubility (mole fraction) is 0.00618.

What about the solubility (mole fraction) (in methyl acetate, 308.15 K) of the same compound?
The solubility (mole fraction) was 0.00696.

What about the solubility (mole fraction) (in methyl acetate, 313.15 K) of the same compound?
The solubility (mole fraction) was 0.00794.

And the solubility (mole fraction) (in methyl acetate, 318.15 K)?
Its solubility (mole fraction) is 0.00908.

And the solubility (mole fraction) (in methyl acetate, 323.15 K)?
The solubility (mole fraction) was 0.0104.

What about the solubility (mole fraction) (in n-propanol, 278.15 K) of the same compound?
Its solubility (mole fraction) is 0.00214.

And the solubility (mole fraction) (in n-propanol, 283.15 K)?
The solubility (mole fraction) was 0.00259.

What about the solubility (mole fraction) (in n-propanol, 288.15 K) of the same compound?
The solubility (mole fraction) was 0.00321.

What about the solubility (mole fraction) (in n-propanol, 293.15 K) of the same compound?
Its solubility (mole fraction) is 0.00388.

What about the solubility (mole fraction) (in n-propanol, 298.15 K) of the same compound?
The solubility (mole fraction) was 0.00467.

What about the solubility (mole fraction) (in n-propanol, 303.15 K) of the same compound?
The solubility (mole fraction) was 0.00568.

And the solubility (mole fraction) (in n-propanol, 308.15 K)?
The solubility (mole fraction) was 0.00688.

What about the solubility (mole fraction) (in n-propanol, 313.15 K) of the same compound?
Its solubility (mole fraction) is 0.00834.

What about the solubility (mole fraction) (in n-propanol, 318.15 K) of the same compound?
Its solubility (mole fraction) is 0.00992.

What about the solubility (mole fraction) (in n-propanol, 323.15 K) of the same compound?
The solubility (mole fraction) was 0.0119.

And the solubility (mole fraction) (in n-propyl acetate, 278.15 K)?
The solubility (mole fraction) was 0.0017.

What about the solubility (mole fraction) (in n-propyl acetate, 283.15 K) of the same compound?
The solubility (mole fraction) was 0.00202.

What about the solubility (mole fraction) (in n-propyl acetate, 288.15 K) of the same compound?
The solubility (mole fraction) was 0.00235.

What about the solubility (mole fraction) (in n-propyl acetate, 293.15 K) of the same compound?
Its solubility (mole fraction) is 0.00281.

What about the solubility (mole fraction) (in n-propyl acetate, 298.15 K) of the same compound?
The solubility (mole fraction) was 0.00329.

What about the solubility (mole fraction) (in n-propyl acetate, 303.15 K) of the same compound?
Its solubility (mole fraction) is 0.00381.

What about the solubility (mole fraction) (in n-propyl acetate, 308.15 K) of the same compound?
Its solubility (mole fraction) is 0.00442.

What about the solubility (mole fraction) (in n-propyl acetate, 313.15 K) of the same compound?
The solubility (mole fraction) was 0.00512.

And the solubility (mole fraction) (in n-propyl acetate, 318.15 K)?
The solubility (mole fraction) was 0.00594.

And the solubility (mole fraction) (in n-propyl acetate, 323.15 K)?
Its solubility (mole fraction) is 0.00679.
